T/C data for 17 molecules are collected here from PubChem BioAssay AID256 (DTP/NCI, 2004).

The test concerns CD2F1 mice, L1210 leukemia ip, survival T/C. Nature of the test: NCI In Vivo Anticancer Drug Screen. Data for tumor model L1210 Leukemia (intraperitoneal) in CD2F1 (CDF1) mice. To be noted: higher = longer survival. The gist of the method: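 Implant tumor; dose compound or vehicle; measure endpoint in both groups; report treated divided by control.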
Setting [1] is: endpoint: mean survival time, dose: 12.5 mg/kg/injection, schedule: Q01DX005 (ip), vehicle: distilled water + Tween-80.
[2] abbreviates: endpoint: mean survival time, dose: 25.0 mg/kg/injection, schedule: Q01DX005 (ip), vehicle: distilled water + Tween-80.
The mark [3] stands for this setting: endpoint: mean survival time, dose: 50.0 mg/kg/injection, schedule: Q01DX005 (ip), vehicle: distilled water + Tween-80.
Where [4] appears, read: endpoint: mean survival time, dose: 100.0 mg/kg/injection, schedule: Q01DX005 (ip), vehicle: distilled water + Tween-80.
Where [5] appears, read: endpoint: mean survival time, dose: 100.0 mg/kg/injection, schedule: Q04DX003 (ip), vehicle: saline with Tween-80.
Where [6] appears, read: endpoint: mean survival time, dose: 200.0 mg/kg/injection, schedule: Q04DX003 (ip), vehicle: saline with Tween-80.
The mark [7] stands for this setting: endpoint: mean survival time, dose: 400.0 mg/kg/injection, schedule: Q04DX003 (ip), vehicle: saline with Tween-80.
Setting [8] is: endpoint: mean survival time, dose: 100.0 mg/kg/injection, schedule: Q01DX001 (ip), vehicle: Klucel (hydroxypropylcellulose) (HPC).
Setting [9] is: endpoint: mean survival time, dose: 200.0 mg/kg/injection, schedule: Q01DX001 (ip), vehicle: Klucel (hydroxypropylcellulose) (HPC).
The mark [10] stands for this setting: endpoint: mean survival time, dose: 400.0 mg/kg/injection, schedule: Q01DX001 (ip), vehicle: Klucel (hydroxypropylcellulose) (HPC).

Where “and” joins values, the source holds several entries; their conditions need not be identical. Equal values may be shown once. Inconclusive results and toxic doses are left out.

For `COc1cc2c(c(OC)c1O)-c1ccc(OC)c(=O)cc1[C@@H](NC(=O)C(F)(F)F)CC2`, the T/C by setting is: (endpoint: median survival time, dose: 0.62 mg/kg/injection, schedule: Q01DX009 (ip), vehicle: Klucel (hydroxypropylcellulose) (HPC)) 118 % of control; (endpoint: median survival time, dose: 1.25 mg/kg/injection, schedule: Q01DX009 (ip), vehicle: Klucel (hydroxypropylcellulose) (HPC)) 123 % of control; (endpoint: median survival time, dose: 2.5 mg/kg/injection, schedule: Q01DX005 (ip), vehicle: Klucel (hydroxypropylcellulose) (HPC)) 164 % of control; (endpoint: median survival time, dose: 3.0 mg/kg/injection, schedule: Q01DX005 (ip), vehicle: Klucel (hydroxypropylcellulose) (HPC)) 175 % of control; (endpoint: median survival time, dose: 5.0 mg/kg/injection, schedule: Q01DX005 (ip), vehicle: Klucel (hydroxypropylcellulose) (HPC)) 171 % of control; (endpoint: median survival time, dose: 8.32 mg/kg/injection, schedule: Q01DX005 (ip), vehicle: Klucel (hydroxypropylcellulose) (HPC)) 167 % of control. The T/C reads like this: (endpoint: median survival time, dose: 10.0 mg/kg/injection, schedule: Q01DX005 (ip), vehicle: Klucel (hydroxypropylcellulose) (HPC)) 160 % of control; (endpoint: median survival time, dose: 13.88 mg/kg/injection, schedule: Q01DX005 (ip), vehicle: Klucel (hydroxypropylcellulose) (HPC)) 164 % of control.
Take `COc1ccc2c(c1)-c1nn(CCCN(C)C)c3ccc([N+](=O)[O-])c(c13)N2`: the T/C (endpoint: median survival time, dose: 3.12 mg/kg/injection, schedule: Q01DX005 (ip), vehicle: water) was 152 % of control; the T/C (endpoint: median survival time, dose: 3.12 mg/kg/injection, schedule: Q01DX009 (ip), vehicle: water) is 168 % of control; the T/C (endpoint: median survival time, dose: 6.25 mg/kg/injection, schedule: Q01DX005 (ip), vehicle: water) was 152 % of control; the T/C (endpoint: median survival time, dose: 6.25 mg/kg/injection, schedule: Q01DX009 (ip), vehicle: water) was 216 % of control; the T/C (endpoint: median survival time, dose: 7.5 mg/kg/injection, schedule: Q01DX005 (ip), vehicle: water) is 164 % of control; the T/C (endpoint: median survival time, dose: 12.5 mg/kg/injection, schedule: Q01DX005 (ip), vehicle: water) is 180 % of control. Further, the T/C by setting is: (endpoint: median survival time, dose: 12.5 mg/kg/injection, schedule: Q01DX009 (ip), vehicle: water) 113 % of control; (endpoint: median survival time, dose: 20.83 mg/kg/injection, schedule: Q01DX005 (ip), vehicle: water) 225 % of control; (endpoint: median survival time, dose: 25.0 mg/kg/injection, schedule: Q01DX005 (ip), vehicle: water) 109 % of control; (endpoint: median survival time, dose: 34.72 mg/kg/injection, schedule: Q01DX005 (ip), vehicle: water) 107 % of control; (endpoint: median survival time, dose: 50.0 mg/kg/injection, schedule: Q01DX005 (ip), vehicle: water) 92 % of control and 94 % of control; (endpoint: median survival time, dose: 50.0 mg/kg/injection, schedule: Q01DX009 (ip), vehicle: water) 116 % of control.
In the case of `O=C(O)C(=O)O.[NH-]C1CCCCC1C1CCCCC1[NH-].[Pt+2]` (configuration not stated), the T/C (endpoint: mean survival time, dose: 3.12 mg/kg/injection, schedule: Q04DX003 (ip), vehicle: distilled water + Tween-80) was 112 % of control; the T/C (endpoint: mean survival time, dose: 6.25 mg/kg/injection, schedule: Q04DX003 (ip), vehicle: distilled water + Tween-80) is 119 % of control; the T/C (endpoint: mean survival time, dose: 25.0 mg/kg/injection, schedule: Q04DX003 (ip), vehicle: distilled water + Tween-80) is 160 % of control; the T/C (endpoint: mean survival time, dose: 50.0 mg/kg/injection, schedule: Q04DX003 (ip), vehicle: distilled water + Tween-80) is 238 % of control.
In the case of `O=C(NCCCl)Nc1ccc(O)cc1`, the T/C (endpoint: mean survival time, dose: 100.0 mg/kg/injection, schedule: Q01DX001 (ip), vehicle: carboxymethylcellulose (CMC)) is 101 % of control; the T/C (endpoint: mean survival time, dose: 200.0 mg/kg/injection, schedule: Q01DX001 (ip), vehicle: carboxymethylcellulose (CMC)) was 98 % of control; the T/C (endpoint: mean survival time, dose: 400.0 mg/kg/injection, schedule: Q01DX001 (ip), vehicle: carboxymethylcellulose (CMC)) is 104 % of control.
As to `CCCCCCCCCCCC(=O)/C=C/Sc1n[nH]c(=O)[nH]c1=O`, the T/C runs as follows: under setting [1], 102 % of control; under setting [2], 104 % of control; under setting [3], 100 % of control; under setting [4], 102 % of control.
As to `N/N=C1/C(=O)c2cccc3cccc1c23`, the T/C was 100 % of control under setting [5], 102 % of control under setting [6] and 92 % of control under setting [7].
With `CC1(C)OC2C(CN=[N+]=[N-])OC(n3cnc4c(=O)[nH]c(N)nc43)C2O1` (configuration not stated), the T/C is 109 % of control under setting [8], 97 % of control under setting [9] and 97 % of control under setting [10].
Turning to `O=C(Nc1cc([N+](=O)[O-])ccc1O)C(O)c1ccccc1` (configuration not stated), the T/C is, setting by setting: (endpoint: mean survival time, dose: 12.5 mg/kg/injection, schedule: Q01DX009 (ip), vehicle: other) 95 % of control; (endpoint: mean survival time, dose: 25.0 mg/kg/injection, schedule: Q01DX009 (ip), vehicle: other) 89 % of control; (endpoint: mean survival time, dose: 50.0 mg/kg/injection, schedule: Q01DX009 (ip), vehicle: other) 86 % of control; (endpoint: mean survival time, dose: 100.0 mg/kg/injection, schedule: Q01DX009 (ip), vehicle: other) 91 % of control; (endpoint: mean survival time, dose: 200.0 mg/kg/injection, schedule: Q01DX009 (ip), vehicle: other) 91 % of control.
For `C(=N\Nc1nc2ccccc2s1)/c1ccc2ccccc2n1`, the T/C is 95 % of control (endpoint: mean survival time, dose: 100.0 mg/kg/injection, schedule: Q04DX003 (ip), vehicle: Klucel (hydroxypropylcellulose) (HPC)); 94 % of control (endpoint: mean survival time, dose: 200.0 mg/kg/injection, schedule: Q04DX003 (ip), vehicle: Klucel (hydroxypropylcellulose) (HPC)); 94 % of control (endpoint: mean survival time, dose: 400.0 mg/kg/injection, schedule: Q04DX003 (ip), vehicle: Klucel (hydroxypropylcellulose) (HPC)).
For `COC(=O)C1C2C=CC(C3CCC23)C1C(=O)OC` (configuration not stated), the T/C is 100 % of control (endpoint: mean survival time, dose: 100.0 mg/kg/injection, schedule: Q01DX009 (ip), vehicle: saline with Tween-80); 93 % of control (endpoint: mean survival time, dose: 200.0 mg/kg/injection, schedule: Q01DX009 (ip), vehicle: saline with Tween-80); 91 % of control (endpoint: mean survival time, dose: 400.0 mg/kg/injection, schedule: Q01DX009 (ip), vehicle: saline with Tween-80).
With `COc1ccc([C@@H]2c3cc4c(cc3C[C@H]3COC(=O)[C@@H]32)OCO4)cc1OC`, the T/C by setting is: (endpoint: mean survival time, dose: 11.0 mg/kg/injection, schedule: Q01DX009 (ip), vehicle: saline with Tween-80) 110 % of control; (endpoint: mean survival time, dose: 22.0 mg/kg/injection, schedule: Q01DX009 (ip), vehicle: saline with Tween-80) 110 % of control; (endpoint: mean survival time, dose: 33.0 mg/kg/injection, schedule: Q01DX009 (ip), vehicle: saline with Tween-80) 109 % of control; (endpoint: mean survival time, dose: 67.0 mg/kg/injection, schedule: Q01DX009 (ip), vehicle: saline with Tween-80) 107 % of control.
For the molecule `COc1cc(OC)c(OC)cc1/C=C\c1ccc2ccccc2[n+]1C`, the T/C by setting is: (endpoint: mean survival time, dose: 12.5 mg/kg/injection, schedule: Q01DX009 (ip), vehicle: saline with Tween-80) 100 % of control; (endpoint: mean survival time, dose: 25.0 mg/kg/injection, schedule: Q01DX009 (ip), vehicle: saline with Tween-80) 91 % of control; under setting [5], 104 % of control.
Turning to `COc1ccc(Nc2ncnc3c2ncn3C2OC(CO)C(O)C2O)cc1` (configuration not stated), the T/C (endpoint: mean survival time, dose: 6.25 mg/kg/injection, schedule: Q01DX005 (ip), vehicle: distilled water + Tween-80) is 101 % of control; the T/C under setting [1] was 102 % of control and 96 % of control; the T/C under setting [2] was 104 % of control and 96 % of control; the T/C under setting [3] was 91 % of control; the T/C under setting [4] was 102 % of control; the T/C (endpoint: mean survival time, dose: 200.0 mg/kg/injection, schedule: Q01DX005 (ip), vehicle: distilled water + Tween-80) was 100 % of control.
As to `CCOC(=O)C(=O)C[n+]1cc2ccccc2cc1/C=N/O`, the T/C is, setting by setting: (endpoint: mean survival time, dose: 100.0 mg/kg/injection, schedule: Q04DX003 (ip), vehicle: saline) 105 % of control; (endpoint: mean survival time, dose: 200.0 mg/kg/injection, schedule: Q04DX003 (ip), vehicle: saline) 105 % of control; (endpoint: mean survival time, dose: 400.0 mg/kg/injection, schedule: Q04DX003 (ip), vehicle: saline) 94 % of control.
Consider `[C-]#[O+].[C-]#[O+].[C-]#[O+].[C-]#[O+].[C-]#[O+].[C-]#[O+].[W]`, for which the T/C runs as follows: under setting [5], 95 % of control; under setting [6], 97 % of control; under setting [7], 101 % of control.
On to `CCOC(=O)C1(C(=O)OCC)C(C)CC(OCC)N1C(=O)c1cc2c(cc1[N+](=O)[O-])OCO2` (configuration not stated), for which the T/C was 100 % of control under setting [8], 100 % of control under setting [9] and 100 % of control under setting [10].
Turning to `O=[N+]([O-])c1ccc(Cl)c2ncccc12`, the T/C by setting is: under setting [5], 101 % of control; under setting [6], 104 % of control.
